One assay concerns the target T1, BRAF (Homo sapiens, UniProt P15056).
T1 construct: purchased Invitrogen
The experiment in a line: In vitro kinase assay (Z'-LYTE), BRAF. The format is biochemical. The note with it: read-out: % of inhibition of the kinase compared to the control. Here is the method:
(§1) 1) In Vitro Kinase Assays (Table 10 to Table 21)
(§2) The inhibitory activity of the compounds on several kinases including BRAF, EGFR (ErbB1), EGFR (ErbB1) T790M L858R, FGFR2, KDR (VEGFR2), PDGFRA (PDGFR alpha), SRC and other was evaluated by Invitrogen using the Z′-LYTE® technology. Briefly, the Z′-LYTE® biochemical assay employs a fluorescence-based, coupled-enzyme format and is based on the differential sensitivity of phosphorylated and non-phosphorylated peptides to proteolytic cleavage. The peptide substrate is labeled with two fluorophores—one at each end—that make up a FRET pair. A ratiometric method, which calculates the ratio (the Emission Ratio) of donor emission to acceptor emission after excitation of the donor fluorophore at 400 nm, is used to quantitate reaction progress.
(§3) The compounds are screened in 1% DMSO (final) in the well. For 10 point titrations, 3-fold serial dilutions are conducted from the starting concentration. All Peptide/Kinase Mixtures are diluted to a 2× working concentration in the appropriate Kinase Buffer. All ATP Solutions are diluted to a 4× working concentration in Kinase Buffer (50 mM HEPES pH 7.5, 0.01% BRIJ-35, 10 mM MgCl2, 1 mM EGTA). ATP Km apparent is previously determined using a Z′-LYTE® assay.
(§4) Each compound was incubated at a concentration of 100 nM (excepted to test the activity against ABL and ABL T315I for which the compounds were incubated at a concentration of 10 μM) and the tables 10 to 21 summarize the results obtained showing the inhibitory power of a compound.

The next assay deals with T2, FGFR2 (Homo sapiens, UniProt P21802).
T2 construct: purchased Invitrogen
The experiment in a line: In vitro kinase assay (Z'-LYTE), FGFR2. Format: biochemical. The note with it: read-out: % of inhibition of the kinase compared to the control. Here is the method:
as §1, §2, §3, §4

A further assay deals with T3, KDR (VEGFR2) (Homo sapiens, UniProt P35968).
T3 construct: purchased Invitrogen
Put plainly: In vitro kinase assay (Z'-LYTE), KDR (VEGFR2). Format: biochemical. The following applies: read-out: % of inhibition of the kinase compared to the control. On the procedure: as §1, §2, §3, §4

Another assay concerns the target T4, EGFR (ErbB1) (Homo sapiens, UniProt P00533).
T4 construct: purchased Invitrogen
The experiment in a line: In vitro kinase assay (Z'-LYTE), EGFR (ErbB1). The note with it: read-out: % of inhibition of the kinase compared to the control. Format: biochemical. On the procedure: as §1, §2, §3, §4

Another assay concerns HUVEC. The experiment in a line: In vitro cell proliferation assay (MTT), HUVEC. The format is cell-based. The note with it: Homo sapiens, read-out: EC50, anti-proliferative activity. On the procedure: (§5) 2) In Vitro Cell Proliferation Assays (Table 22 to Table 35)
(§6) Cancer cell lines (5×10^3 cells per well) or HUVEC (1×10^4 cells per well) or HRMEC (1×10^4 cells per well) were distributed in 96-well plates and incubating in duplicate with escalating concentrations (10 nM to 3 μM) of compounds for 72 hr. Cell proliferation was measured using MTT (3[4,5-dimethylthiazol-2-yl]-2,5-diphenyltetrazolium bromide).

A further assay addresses T5, PDGFRA (PDGFR alpha) (Homo sapiens, UniProt P16234).
T5 construct: purchased Invitrogen
Put plainly: In vitro kinase assay (Z'-LYTE), PDGFRA. Format: biochemical. The note with it: read-out: % of inhibition of the kinase compared to the control. On the procedure: as §1, §2, §3, §4

The next assay concerns the target T6, SRC (Homo sapiens, UniProt P12931).
T6 construct: purchased Invitrogen
Put plainly: In vitro kinase assay (Z'-LYTE), SRC. Format: biochemical. The note with it: read-out: % of inhibition of the kinase compared to the control. On the procedure:
as §1, §2, §3, §4

The next assay deals with HepG2 cell line. Put plainly: In vitro cell proliferation assay (MTT), HepG2. The following applies: Homo sapiens, read-out: EC50, anti-proliferative activity. Format: cell-based. Here is the method:
as §5, §6

Read-outs that look alike come from different tables or passages of the source. Where only a bound is given, the exact number is not on record here.

The results in this text go back to patent US9403823B2, “Protein kinase inhibitors” (ORIBASE PHARMA, priority 2012, dated 2016).

T6 sequence (P12931 whole entry): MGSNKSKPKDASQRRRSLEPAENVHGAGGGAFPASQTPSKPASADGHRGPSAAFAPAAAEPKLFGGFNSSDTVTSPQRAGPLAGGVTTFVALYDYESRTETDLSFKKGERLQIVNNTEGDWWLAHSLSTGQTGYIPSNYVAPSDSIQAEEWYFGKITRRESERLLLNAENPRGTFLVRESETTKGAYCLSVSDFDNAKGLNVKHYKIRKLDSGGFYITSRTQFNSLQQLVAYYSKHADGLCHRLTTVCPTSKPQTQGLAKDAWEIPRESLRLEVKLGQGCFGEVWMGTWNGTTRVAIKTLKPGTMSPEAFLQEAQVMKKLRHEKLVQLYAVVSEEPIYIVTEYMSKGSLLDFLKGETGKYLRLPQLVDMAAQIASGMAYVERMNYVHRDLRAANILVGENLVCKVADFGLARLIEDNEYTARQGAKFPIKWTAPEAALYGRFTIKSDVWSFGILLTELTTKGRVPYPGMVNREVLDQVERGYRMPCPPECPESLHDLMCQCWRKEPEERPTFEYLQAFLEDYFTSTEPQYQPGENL
T5 sequence (P16234 24-1089): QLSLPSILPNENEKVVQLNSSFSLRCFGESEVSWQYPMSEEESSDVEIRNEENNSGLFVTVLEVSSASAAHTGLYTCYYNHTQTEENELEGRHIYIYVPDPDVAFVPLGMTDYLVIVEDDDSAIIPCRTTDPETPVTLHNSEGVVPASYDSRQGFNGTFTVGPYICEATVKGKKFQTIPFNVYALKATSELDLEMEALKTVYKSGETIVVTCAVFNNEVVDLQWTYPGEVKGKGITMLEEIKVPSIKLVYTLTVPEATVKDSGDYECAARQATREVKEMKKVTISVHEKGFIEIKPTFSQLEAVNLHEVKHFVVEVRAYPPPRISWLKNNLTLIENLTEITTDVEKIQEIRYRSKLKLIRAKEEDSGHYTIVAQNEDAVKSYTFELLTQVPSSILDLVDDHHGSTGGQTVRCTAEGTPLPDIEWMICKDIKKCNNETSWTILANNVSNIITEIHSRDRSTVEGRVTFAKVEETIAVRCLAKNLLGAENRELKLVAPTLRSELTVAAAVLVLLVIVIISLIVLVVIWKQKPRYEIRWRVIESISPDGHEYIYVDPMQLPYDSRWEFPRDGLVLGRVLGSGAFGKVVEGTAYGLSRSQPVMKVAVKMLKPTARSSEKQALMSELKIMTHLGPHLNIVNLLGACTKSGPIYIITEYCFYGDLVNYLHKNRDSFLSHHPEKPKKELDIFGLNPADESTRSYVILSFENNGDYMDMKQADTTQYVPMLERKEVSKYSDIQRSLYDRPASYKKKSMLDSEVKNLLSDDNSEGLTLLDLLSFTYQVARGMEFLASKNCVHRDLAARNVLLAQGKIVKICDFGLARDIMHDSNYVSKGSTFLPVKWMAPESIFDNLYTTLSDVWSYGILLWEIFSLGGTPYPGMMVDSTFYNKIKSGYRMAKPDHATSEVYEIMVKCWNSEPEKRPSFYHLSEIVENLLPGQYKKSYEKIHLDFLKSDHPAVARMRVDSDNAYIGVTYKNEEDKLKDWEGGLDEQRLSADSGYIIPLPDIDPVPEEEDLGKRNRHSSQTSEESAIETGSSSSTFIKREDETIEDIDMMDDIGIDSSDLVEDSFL
T1 sequence (P15056 whole entry): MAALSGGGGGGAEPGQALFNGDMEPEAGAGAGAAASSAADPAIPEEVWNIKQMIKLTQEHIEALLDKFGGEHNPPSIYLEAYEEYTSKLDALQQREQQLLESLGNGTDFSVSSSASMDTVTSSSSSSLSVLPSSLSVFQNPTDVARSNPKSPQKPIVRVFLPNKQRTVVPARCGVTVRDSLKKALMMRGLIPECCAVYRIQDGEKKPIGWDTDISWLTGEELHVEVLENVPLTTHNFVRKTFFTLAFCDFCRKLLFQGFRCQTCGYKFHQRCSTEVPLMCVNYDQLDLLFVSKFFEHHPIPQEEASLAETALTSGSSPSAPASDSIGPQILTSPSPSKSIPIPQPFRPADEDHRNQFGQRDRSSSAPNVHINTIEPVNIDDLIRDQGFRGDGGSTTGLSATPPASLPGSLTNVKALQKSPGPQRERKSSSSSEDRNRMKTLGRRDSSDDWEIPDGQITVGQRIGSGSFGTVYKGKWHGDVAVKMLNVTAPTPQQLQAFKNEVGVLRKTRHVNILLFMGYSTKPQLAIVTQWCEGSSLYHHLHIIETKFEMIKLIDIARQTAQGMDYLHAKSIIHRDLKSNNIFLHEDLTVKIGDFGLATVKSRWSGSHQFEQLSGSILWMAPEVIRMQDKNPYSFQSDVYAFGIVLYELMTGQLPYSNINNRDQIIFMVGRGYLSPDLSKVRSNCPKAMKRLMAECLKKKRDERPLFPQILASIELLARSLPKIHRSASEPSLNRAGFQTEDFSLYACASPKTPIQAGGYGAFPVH
T4 sequence (P00533 25-1210): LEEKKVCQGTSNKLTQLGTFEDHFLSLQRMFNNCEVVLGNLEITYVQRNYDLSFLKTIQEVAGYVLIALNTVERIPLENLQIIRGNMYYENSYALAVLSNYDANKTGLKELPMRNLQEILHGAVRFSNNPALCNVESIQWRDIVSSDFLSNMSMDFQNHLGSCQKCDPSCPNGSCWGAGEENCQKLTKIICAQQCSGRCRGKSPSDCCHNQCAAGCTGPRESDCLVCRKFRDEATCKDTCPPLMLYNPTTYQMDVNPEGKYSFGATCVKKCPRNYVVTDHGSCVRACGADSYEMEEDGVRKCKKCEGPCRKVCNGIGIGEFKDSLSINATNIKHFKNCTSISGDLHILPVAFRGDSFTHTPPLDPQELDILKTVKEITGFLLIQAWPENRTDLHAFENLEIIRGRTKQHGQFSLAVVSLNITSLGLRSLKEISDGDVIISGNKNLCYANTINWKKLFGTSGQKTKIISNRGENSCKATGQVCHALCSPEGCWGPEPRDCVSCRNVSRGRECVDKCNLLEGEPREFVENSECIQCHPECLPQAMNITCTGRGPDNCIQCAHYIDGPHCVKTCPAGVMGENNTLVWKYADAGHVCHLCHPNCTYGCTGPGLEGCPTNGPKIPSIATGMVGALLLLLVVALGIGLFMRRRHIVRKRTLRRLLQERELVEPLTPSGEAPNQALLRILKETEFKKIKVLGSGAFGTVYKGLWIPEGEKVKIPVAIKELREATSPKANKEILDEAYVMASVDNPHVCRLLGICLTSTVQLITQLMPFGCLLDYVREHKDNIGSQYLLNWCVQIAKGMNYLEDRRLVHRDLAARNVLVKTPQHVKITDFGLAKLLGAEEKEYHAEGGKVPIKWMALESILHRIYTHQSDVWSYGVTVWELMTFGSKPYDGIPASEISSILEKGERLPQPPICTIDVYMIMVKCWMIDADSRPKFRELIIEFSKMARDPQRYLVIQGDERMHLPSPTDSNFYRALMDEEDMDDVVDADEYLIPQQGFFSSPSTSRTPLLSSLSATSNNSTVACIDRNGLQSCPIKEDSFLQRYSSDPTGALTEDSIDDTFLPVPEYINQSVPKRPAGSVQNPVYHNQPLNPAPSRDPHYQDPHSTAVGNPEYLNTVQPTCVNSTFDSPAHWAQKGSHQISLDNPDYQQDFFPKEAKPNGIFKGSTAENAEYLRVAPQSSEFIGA
T2 sequence (P21802 22-821): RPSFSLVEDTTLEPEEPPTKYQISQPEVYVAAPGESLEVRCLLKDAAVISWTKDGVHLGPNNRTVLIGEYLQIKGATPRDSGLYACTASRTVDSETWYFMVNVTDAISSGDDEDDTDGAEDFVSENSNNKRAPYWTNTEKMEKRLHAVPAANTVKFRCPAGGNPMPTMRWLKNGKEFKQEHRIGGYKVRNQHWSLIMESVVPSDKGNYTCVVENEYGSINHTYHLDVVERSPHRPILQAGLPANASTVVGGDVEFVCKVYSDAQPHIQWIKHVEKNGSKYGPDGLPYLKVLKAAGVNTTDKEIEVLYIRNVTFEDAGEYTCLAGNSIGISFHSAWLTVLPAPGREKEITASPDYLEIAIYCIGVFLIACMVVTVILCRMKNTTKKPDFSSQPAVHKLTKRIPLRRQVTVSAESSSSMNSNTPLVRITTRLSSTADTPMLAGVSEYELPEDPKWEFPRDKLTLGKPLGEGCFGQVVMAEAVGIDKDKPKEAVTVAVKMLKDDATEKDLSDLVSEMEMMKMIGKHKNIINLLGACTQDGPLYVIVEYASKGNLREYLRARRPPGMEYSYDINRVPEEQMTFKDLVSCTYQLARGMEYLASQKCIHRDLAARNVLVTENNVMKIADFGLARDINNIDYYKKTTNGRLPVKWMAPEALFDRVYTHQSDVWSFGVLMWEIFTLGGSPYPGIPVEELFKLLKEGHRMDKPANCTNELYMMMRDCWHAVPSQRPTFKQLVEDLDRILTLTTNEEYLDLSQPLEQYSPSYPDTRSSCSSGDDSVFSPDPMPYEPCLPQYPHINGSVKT

The inhibition is the drop in the measured response relative to a control, in per cent. Regarding `Cc1ccc(NC(=O)c2ccc(CN3CCN(C)CC3)c(C(F)(F)F)c2)cc1C(=O)Nc1cnc2[nH]c(C(=O)O)cc2c1` [OR0810, 5-{2-Methyl-5-[4-(4-methyl-piperazin-1-ylmethyl)-3-trifluoromethyl-benzoylamino]-benzoylamino}-1H-pyrrolo[2,3-b]pyridine-2-carboxylic acid], the inhibition at 0.1 µM was under 50% at BRAF, at least 50% on FGFR2, at least 50% at KDR (VEGFR2) and at least 50% on EGFR (ErbB1).
`Cc1ccc(NC(=O)c2ccc(CN3CC[C@H](N(C)C)C3)c(C(F)(F)F)c2)cc1CNc1cnc2[nH]c(C(=O)O)cc2c1` [OR0814, 5-{5-[4-((S)-3-Dimethylamino-pyrrolidin-1-ylmethyl)-3-trifluoromethyl-benzoylamino]-2-methyl-benzylamino}-1H-pyrrolo[2,3-b]pyridine-2-carboxylic acid]: the inhibition at 0.1 µM was under 50% at BRAF, at least 50% at FGFR2, at least 50% at KDR (VEGFR2) and at least 50% on EGFR (ErbB1).
The term EC50 denotes the concentration that produces a half-maximal response. Take `CC(=O)c1cc2cc(NCc3cc(NC(=O)c4ccc(C(F)(F)F)nc4)ccc3C)cnc2[nH]1` [OR0886, N-{3-[(2-Acetyl-1H-pyrrolo[2,3-b]pyridin-5-ylamino)-methyl]-4-methyl-phenyl}-6-trifluoromethyl-nicotinamide]: the inhibition at 0.1 µM was under 50% at BRAF; under 50% on FGFR2; under 50% on KDR (VEGFR2); at least 50% at PDGFRA (PDGFR alpha); under 50% on SRC. In addition, the EC50 with HUVEC (72 h) was 0.1 to 1 µM; in the assay with HepG2 cell line (HepG2, 72 hr, MTT), at least 1 µM.
As for `CC(=O)c1cc2cc(NCc3cc(NC(=O)c4ccnc(C(F)(F)F)c4)ccc3C)cnc2[nH]1` [OR0887, N-{3-[(2-Acetyl-1H-pyrrolo[2,3-b]pyridin-5-ylamino)-methyl]-4-methyl-phenyl}-2-trifluoromethyl-isonicotinamide], the inhibition at 0.1 µM is at least 50% on BRAF, under 50% at FGFR2, at least 50% on KDR (VEGFR2) and under 50% at EGFR (ErbB1). Moreover, the concentration for a half-maximal effect (EC50) in the assay on HUVEC (72 h) lay within 0.1 to 1 µM.
Turning to `CC(=O)c1cc2cc(NCc3cc(NC(=O)c4cncc(C)c4)ccc3C)cnc2[nH]1` [OR0888, N-{3-[(2-Acetyl-1H-pyrrolo[2,3-b]pyridin-5-ylamino)-methyl]-4-methyl-phenyl}-5-methyl-nicotinamide], the inhibition at 0.1 µM is at least 50% on BRAF; under 50% on FGFR2; at least 50% on KDR (VEGFR2); at least 50% on PDGFRA (PDGFR alpha); at least 50% at SRC; under 50% at EGFR (ErbB1). Also, the 50% effective concentration (EC50) is 0.1 to 1 µM with HUVEC (72 h) and at least 1 µM in the assay with HepG2 cell line (HepG2, 72 hr, MTT).
In the case of `CC(=O)c1cc2cc(NCc3cc(NC(=O)c4cccc(C(F)(F)F)c4)ccc3C)cnc2[nH]1` [OR0893, N-{3-[(2-Acetyl-1H-pyrrolo[2,3-b]pyridin-5-ylamino)-methyl]-4-methyl-phenyl}-3-trifluoromethyl-benzamide], the inhibition at 0.1 µM at BRAF was at least 50%; on FGFR2, under 50%; on KDR (VEGFR2), at least 50%; at EGFR (ErbB1), at least 50%. Besides, the concentration for a half-maximal effect (EC50) was 0.1 to 1 µM with HUVEC (72 h) and at most 0.1 µM with HepG2 cell line (HepG2, 72 h).
As for `CC(=O)c1cc2cc(NCc3ccc(F)c(NC(=O)c4cncc(C(F)(F)F)c4)c3)cnc2[nH]1` [OR0894, N-{5-[(2-Acetyl-1H-pyrrolo[2,3-b]pyridin-5-ylamino)-methyl]-2-fluoro-phenyl}-5-trifluoromethyl-nicotinamide], the inhibition at 0.1 µM at BRAF was at least 50%; at FGFR2, at least 50%; on KDR (VEGFR2) it was at least 50%; at EGFR (ErbB1) it was under 50%. In addition, the EC50 with HUVEC (72 hr, MTT) was at least 1 µM.
Take `CC(=O)c1cc2cc(NCc3cccc(C(=O)Nc4cccnc4)c3)cnc2[nH]1` [OR0917, 3-[(2-Acetyl-1H-pyrrolo[2,3-b]pyridin-5-ylamino)-methyl]-N-pyridin-3-yl-benzamide]: the inhibition at 0.1 µM at BRAF was under 50%; at FGFR2 it was at least 50%; on KDR (VEGFR2), at least 50%; on EGFR (ErbB1), at least 50%. Also, the EC50 was at least 1 µM with HUVEC (72 hr, MTT) and at least 1 µM in the assay with HepG2 cell line (HepG2, 72 hr, MTT).
As for `CC(=O)c1cc2cc(NCc3cccc(NC(=O)c4ccc(CN5CC[C@H](N(C)C)C5)c(C(F)(F)F)c4)c3)cnc2[nH]1` [OR0927, N-{3-[(2-Acetyl-1H-pyrrolo[2,3-b]pyridin-5-ylamino)-methyl]-phenyl}-4-((S)-3-dimethylamino-pyrrolidin-1-ylmethyl)-3-trifluoromethyl-benzamide], the inhibition at 0.1 µM at BRAF is under 50%; at FGFR2, at least 50%; on KDR (VEGFR2), at least 50%; on EGFR (ErbB1), at least 50%. In addition, the 50% effective concentration (EC50) in the assay with HUVEC (72 h) is 0.1 to 1 µM; in the assay with HepG2 cell line (HepG2, 72 h) it was 0.1 to 1 µM.
As to `CC(=O)c1cc2cc(NCc3cc(NC(=O)c4cncc(C(F)(F)F)c4)ccc3F)cnc2[nH]1` [OR0970, N-{5-[(2-Acetyl-1H-pyrrolo[2,3-b]pyridin-5-ylamino)-methyl]-4-fluoro-phenyl}-5-trifluoromethyl-nicotinamide], the inhibition at 0.1 µM at BRAF is at least 50%; at FGFR2, under 50%; on KDR (VEGFR2) it was at least 50%; on EGFR (ErbB1) it was under 50%. Further, the EC50 is at least 1 µM in the assay with HUVEC (72 hr, MTT) and 0.1 to 1 µM with HepG2 cell line (HepG2, 72 h).
In the case of `CC(=O)c1cc2cc(NCc3cc(NC(=O)c4ccc(CN5CC[C@H](N(C)C)C5)c(C(F)(F)F)c4)ccc3F)cnc2[nH]1` [OR0971, N-{3-[(2-Acetyl-1H-pyrrolo[2,3-b]pyridin-5-ylamino)-methyl]-4-fluoro-phenyl}-4-((S)-3-dimethylamino-pyrrolidin-1-ylmethyl)-3-trifluoromethyl-benzamide], the inhibition at 0.1 µM on BRAF is under 50%; on FGFR2, at least 50%; on KDR (VEGFR2), at least 50%; on EGFR (ErbB1), at least 50%. Moreover, the EC50 with HUVEC (72 hr, MTT) was at least 1 µM; with HepG2 cell line (HepG2, 72 h), 0.1 to 1 µM.
On to `CC(=O)c1cc2cc(NCc3cc(NC(=O)c4ccc(CN5CCC(N(C)C)C5)c(F)c4)ccc3C)cnc2[nH]1` (stereo not shown) [OR0973, N-{3-[(2-Acetyl-1H-pyrrolo[2,3-b]pyridin-5-ylamino)-methyl]-4-methyl-phenyl}-4-(3-dimethylamino-pyrrolidin-1-ylmethyl)-3-fluoro-benzamide], for which the inhibition at 0.1 µM on BRAF was at least 50%; at FGFR2 it was under 50%; on KDR (VEGFR2), at least 50%; on EGFR (ErbB1), at least 50%. Also, the EC50 in the assay with HUVEC (72 hr, MTT) is at least 1 µM; with HepG2 cell line (HepG2, 72 h) it was 0.1 to 1 µM.
In the case of `CC(=O)c1cc2cc(NC(=O)c3cccc(CNC(=O)c4ccc(CN5CCN(C)CC5)c(C(F)(F)F)c4)c3)cnc2[nH]1` [OR0984, N-[3-(2-Acetyl-1H-pyrrolo[2,3-b]pyridin-5-ylcarbamoyl)-benzyl]-4-(4-methyl-piperazin-1-ylmethyl)-3-trifluoromethyl-benzamide], the inhibition at 0.1 µM at BRAF, at FGFR2, on KDR (VEGFR2), on PDGFRA (PDGFR alpha), on SRC and on EGFR (ErbB1) was under 50% in each case. The EC50 in the assay with HepG2 cell line (HepG2, 72 hr, MTT) was at least 1 µM.
